In PMC7168207, “Dibasic Derivatives of Phenylcarbamic Acid as Prospective Antibacterial Agents Interacting with Cytoplasmic Membrane” (Antibiotics, 2020):
“And” between values parts separate entries of the source, which are not always exact repeats. Equal entries are not always repeated. Where two headings read alike, the source gives them in different places.

Assays:
[1] = test system: vancomycin-resistant enterococci VRE 368; assay: MIC, broth microdilution; format: cell-based, Enterococcus faecalis; settings: VRE2 = VRE 368; for MIC: read-out: MICs
Experimental: (§1) The modified broth microdilution method was used for in vitro evaluation of minimum inhibitory concentration. A small portion of bacterial colony cultivated overnight onto nutrient agar (Oxoid, Basingstoke, UK) with 5% bovine blood was suspended in sterile phosphate-buffered saline to get cell density 0.5 McFarland. This inoculum was diluted to reach the final concentration of bacterial cells 5 × 10^5 CFU/mL in the wells. […] For plates with staphylococci, cation adjusted Mueller–Hinton (CaMH) broth (Oxoid) was used; enterococci were cultivated in brain heart infusion (BHI, Oxoid). […] A drug-free control and a sterility control were included. Inoculated plates were incubated in aerobic atmosphere at 37 °C overnight. […] After evaluation of MICs, 10 µL of aliquots from the wells were put onto Mueller–Hinton agar. The agar plates were cultivated at 37 °C for 24 h. The minimum bactericidal concentration (MBC) was defined as the lowest concentration of the compound that killed 99.9% of the bacteria compared to the starting inoculum.

[2] = test system: vancomycin-resistant enterococci VRE 725B; assay: MIC, broth microdilution; format: cell-based, Enterococcus faecalis; settings: VRE3 = VRE 725B; for MIC: read-out: MICs
Experimental: as §1

[3] = test system: vancomycin-resistant enterococci VRE 342B; assay: MIC, broth microdilution; format: cell-based, Enterococcus faecalis; settings: VRE1 = VRE 342B; for MIC: read-out: MICs
Experimental: as §1

[4] = test system: E. faecalis ATCC 29212; assay: MIC, broth microdilution; format: cell-based, Enterococcus faecalis; settings: EF = E. faecalis ATCC 29213
Experimental: as §1

[5] = test system: S. aureus ATCC 29213 biofilm; assay: biofilm inhibition assay (crystal violet); format: cell-based, Staphylococcus aureus; settings: ≥80% inhibition of biofilm formation; for MBIC80 (minimum biofilm inhibitory concentration): 48 h
Experimental: (§2) The ability of compounds 1f, 1g, and 1h to inhibit biofilm growth and destroy the matured biofilm of S. aureus ATCC 29213 was investigated. The inhibitory activity was studied by the method with crystal violet. The activity to disrupt matured biofilm was evaluated as a decrease of metabolic activity using the MTT assay.
The plates were inoculated by inoculum of S. aureus ATCC 29213 grown in TSB + 2% glucose to exponential phase. Before the inoculation of the plate, the original inoculum was diluted to 1 McFarland and then 1:100 in fresh TSB + 2% glucose, to reach the final concentrations in the wells of […]. […] The plates were incubated at 37 °C for 48 h. After incubation, the contents of the wells were removed, and the plates were washed three times by sterile PBS. After drying, 125 μL of 0.5% crystal violet was added to each well and the plates were stained at room temperature for 20 min. Then the dye was removed, and the plates were washed three times by sterile PBS. The colored biofilm was detached from the wells using 33% solution of acetic acid. The absorbance at 595 nm was measured. As a blank, a non-inoculated plate treated in the same way was used. […] The minimum biofilm inhibitory concentration was the lowest concentration of the compounds, which inhibited the growth of 80% bacteria compared to the growth control. The experiment was made in duplicate and repeated at least three times.

[6] = test system: human monocytic leukemia THP-1 cells; assay: in vitro antiproliferative assay (WST-1); format: cell-based; settings: THP-1 cells, WST-1, 24 h, read-out: Tox IC50
Experimental: The preliminary in vitro screening of the antiproliferative effect of the investigated compounds was performed using a Water Soluble Tetrazolium salts-1 (WST-1) assay kit and a human monocytic leukemia THP-1 cell line by means of the method described recently. The principle of the WST-1 assay kit is the […] mitochondrial dehydrogenases by antiproliferative compounds. The activity of this enzyme directly correlates with the number of metabolically active cells in the culture. The antiproliferative effect was evaluated as the IC50 value (the concentration of the compound causing 50% inhibition of cell proliferation).
Human monocytic leukemia THP-1 cells were used for in vitro antiproliferative assay. Cells were obtained from the European Collection of Cell Cultures (ECACC, Salisbury, UK) and routinely cultured in RPMI (Roswell Park Memorial Institute) 1640 medium supplemented with 10% fetal bovine serum, 2% L-glutamine, 1% penicillin, and streptomycin at 37 °C with 5% CO2. Cells were passaged at approximately one-week intervals. The antiproliferative activity of the compounds was determined using a Water Soluble Tetrazolium Salts-1 (WST-1, 2-(4-iodophenyl)-3-(4-nitrophenyl)-5-(2,4-disulfophenyl)-2H-tetrazolium) assay kit (Roche Diagnostics, Mannheim, Germany) according to the manufacturer’s instructions. The tested compounds were dissolved in DMSO and added in various compound concentrations to the cell suspension in the culture RPMI 1640 medium. The maximum concentration of DMSO in the assays never exceeded 0.1%. Subsequently, the cells were incubated at 37 °C with 5% CO2 for 24 h. For WST-1 assays, cells were seeded into 96-well plates (5 × 10^4 cells/well in 100 μL culture medium) in triplicate in serum-free RPMI 1640 medium, and measurements were taken 24 h after the treatment with the compounds. The median inhibition concentration values, IC50, were deduced through the production of a dose-response curve. All data were evaluated using GraphPad Prism 5.00 software (GraphPad Software, San Diego, CA, USA).

[7] = test system: methicillin-resistant S. aureus 63718; assay: MIC, broth microdilution; format: cell-based, Staphylococcus aureus; settings: MRSA1 = S. aureus 63718; for MIC: read-out: MICs
Experimental: as §1

[8] = test system: methicillin-resistant S. aureus SA 3202; assay: MIC, broth microdilution; format: cell-based, Staphylococcus aureus; settings: MRSA3 = SA 3202; for MIC: read-out: MICs
Experimental: as §1

[9] = test system: methicillin-resistant S. aureus SA 630; assay: MIC, broth microdilution; format: cell-based, Staphylococcus aureus; settings: MRSA2 = SA 630; for MIC: read-out: MICs
Experimental: as §1

[10] = test system: S. aureus ATCC 29213; assay: MIC, broth microdilution; format: cell-based, Staphylococcus aureus
Experimental: as §1

[11] = test system: S. aureus ATCC 29213 biofilm; assay: biofilm susceptibility / eradication of preformed biofilm (MTT); format: cell-based, Staphylococcus aureus; settings: for MBEC80 (minimum biofilm eradication concentration): 80% reduction of metabolic activity of preformed biofilm, 24 h
Experimental: as §2
Biofilms were grown as described above but without the presence of the compounds. After 48 h of incubation at 37 °C, the contents of the wells were removed, and the plates were washed three times by sterile PBS. After washing, 100 µL of tested compounds in CaMH were added to the wells. […] A growth control containing 2.5% of DMSO in CaMH was included. The plates were incubated at 37 °C for 24 h, then the solutions of compounds were removed, and the plates were gently washed three times by sterile PBS. Bacterial viability was analyzed using 100 µL of 0.05 mg/mL MTT (3-(4,5-dimethylthiazol-2-yl)- 2,5-diphenyltetrazolium bromide) in PBS in each well. The plates with MTT were incubated at 37 °C for 1–2 h in darkness, until the blue formazan crystals appeared. MTT solution was removed and the plates were washed once by PBS. Crystals of formazan were dissolved using 17% sodium dodecysulphate in 40% dimethylformamid. The absorbance at 570 nm was measured and the percentage of eradication was counted according to the equation (3) % of eradication = 100 − OD570S/OD570C × 100 where OD570S is the absorbance of the sample at 570 nm and OD570C is the absorbance of the growth control at 570 nm. The minimum biofilm eradication concentration was the lowest concentration of the compound, which reduced the metabolic activity of the biofilm by 80% compared to the growth control. The experiment was made in duplicate and repeated at least three times.

[12] = Enterococcus faecalis, ATCC 29212 / ATCC 29213
[13] = Staphylococcus aureus, ATCC29213, SA = S. aureus ATCC 29213, read-out: MICs
[14] = Staphylococcus aureus, ATCC29213, Table 7, planktonic cells of S. aureus ATCC 29213, read-out: MIC
[15] = SA = S. aureus ATCC 29213, read-out: MICs
[16] = Table 7, planktonic cells of S. aureus ATCC 29213

Row | Compound | MIC ([1]; Enterococcus) | MIC ([2]; Enterococcus) | MIC ([3]; Enterococcus) | MIC [4, 12] | MBIC80 (minimum biofilm inhibitory concentration) [5] [µg/mL] | IC50 ([6]; Homo sapiens, THP-1, 24 h) [µM] | MIC ([7]; Staphylococcus aureus) | MIC ([8]; Staphylococcus aureus) | MIC ([9]; Staphylococcus aureus) | MIC [10, 13] | MIC [10, 14] [mg/L] | MBEC80 (minimum biofilm eradication concentration) [11] [µg/mL] | MICs [1] [µg/mL] | MIC [1] [µM] | MICs [2] [µg/mL] | MIC [2] [µM] | MICs [3] [µg/mL] | MIC [3] [µM] | MIC [4] [µM] | MICs [4] [µg/mL] | further results
1 | CCCCCCCCCCCCCCCC[N+](C)(C)Cc1ccccc1 [CTC, cetalkonium chloride, reference compound] | 0.5 µg/mL and 1.26 µM | 0.5 µg/mL and 1.26 µM | 0.5 µg/mL and 1.26 µM | 1 µg/mL and 2.53 µM | 0.25 | 1.29 ± 0.07 | 0.25 µg/mL and 0.63 µM | 1 µg/mL and 2.53 µM | 0.5 µg/mL and 1.26 µM | 0.25 µg/mL and 0.63 µM | 0.25 | >256 | – | – | – | – | – | – | – | – | activity on preformed biofilm [11]: did not show any activity on preformed biofilm
2 | CCN(CC)CCOC(=O)c1ccc(N)cc1 [PRC, procaine, reference compound] | > 256 µg/mL and > 1080 µM | > 256 µg/mL and > 1080 µM | > 256 µg/mL and > 1080 µM | > 256 µg/mL and > 1080 µM | >256 | > 300 | > 256 µg/mL and > 1080 µM | > 256 µg/mL and > 1080 µM | > 256 µg/mL and > 1080 µM | > 256 µg/mL and > 1080 µM | > 256 | >256 | – | – | – | – | – | – | – | – | –
3 | CCCCCCCCCCCCOS(=O)(=O)[O-].[Na+] [SDS, sodium dodecyl sulfate, reference compound] | – | – | – | – | 32 | – | – | – | – | – | – | 128 | 128 | 443 | 128 | 443 | 256 | 887 | 443 | 128 | MICs [7]: 128 µg/mL; MIC [7]: 443 µM; MICs [8]: 64 µg/mL; MIC [8]: 222 µM; MICs [9]: 64 µg/mL; MIC [9]: 222 µM; MICs ([10]; SA = S. aureus ATCC 29213): 128 µg/mL; MIC [10, 15]: 443 µM; MIC [10, 16]: 128 mg/L
4 | CCCCNc1ccc(C(=O)OCCN(C)C)cc1 [TEC, tetracaine, reference compound] | > 256 µg/mL and > 968 µM | > 256 µg/mL and > 968 µM | > 256 µg/mL and > 968 µM | > 256 µg/mL and > 968 µM | >256 | 224 ± 6.52 | > 256 µg/mL and > 968 µM | > 256 µg/mL and > 968 µM | > 256 µg/mL and > 968 µM | > 256 µg/mL and > 968 µM | > 256 | >256 | – | – | – | – | – | – | – | – | –
5 | carbethopendecinium bromide [CRB, reference compound] | – | – | – | – | 0.25 | – | – | – | – | – | – | 64 | 0.25 | 0.59 | 0.5 | 1.18 | 0.5 | 1.18 | 1.18 | 0.5 | minimum biofilm inhibitory concentration relative to MIC against planktonic cells [5]: comparable to its MIC; IC50 [6]: 1.73 ± 0.08 µM; MICs [7]: 0.25 µg/mL; MIC [7]: 0.59 µM; MICs [8]: 2 µg/mL; MIC [8]: 4.73 µM; MICs [9]: 0.5 µg/mL; MIC [9]: 1.18 µM; MICs ([10]; SA = S. aureus ATCC 29213): 0.25 µg/mL; MIC [10, 15]: 0.59 µM; MIC [10, 16]: 0.25 mg/L
